Structures are written as SMILES. Several values for one entry are separate records, joined by “and”; a condition that tells them apart may be missing. Identical values can stand only once.

Consider 15 compounds from publication PMC8344263, “Tetrahydroquinazole-based secondary sulphonamides as carbonic anhydrase inhibitors: synthesis, biological evaluation against isoforms I, II, IV, and IX, and computational studies” (Journal of Enzyme Inhibition and Medicinal Chemistry, 2021).

Data set [1] addresses hCA I (Homo sapiens, UniProt P00915). Description: stopped-flow CO2 hydrase assay, hCA I. The settings on record: for Ki ratio CA I/CA IX: selectivity for hCA IX over hCA I.
Method: (§1) An Applied Photophysics stopped-flow instrument was used for assaying the CA catalysed CO2 hydration activity[28]. […] The uncatalysed rates were determined in the same manner and subtracted from the total observed rates. Stock solutions of inhibitors (10 mM) were prepared in distilled-deionised water with 10% of DMSO and dilutions up to 0.01 µM were done thereafter with the assay buffer. The inhibitor and enzyme solutions were preincubated together for 15 min (standard assay at room temperature) prior to assay, to allow for the formation of the E-I complex. The inhibition constants were obtained by non-linear least-squares methods using PRISM 3 and the Cheng–Prusoff equation and represent the mean from at least three different determinations.
Data set [2] concerns the target hCA II (Homo sapiens, UniProt P00918). The data set is described as follows: stopped-flow CO2 hydrase assay, hCA II. The settings on record: for Ki ratio CA II/CA IX: selectivity for hCA IX over hCA II.
Method: as §1
Data set [3] has as its target hCA IV (Homo sapiens, UniProt P22748). Description: stopped-flow CO2 hydrase assay, hCA IV. The settings on record: for Ki ratio CA IV/CA IX: selectivity for hCA IX over hCA IV.
Method: as §1
The target in data set [4] is hCA IX (Homo sapiens, UniProt Q16790). The data set is described as follows: stopped-flow CO2 hydrase assay, hCA IX. The settings on record: mean from three assays, errors ±5–10%.
Method: as §1

hCA I, sequence (P00915 whole entry): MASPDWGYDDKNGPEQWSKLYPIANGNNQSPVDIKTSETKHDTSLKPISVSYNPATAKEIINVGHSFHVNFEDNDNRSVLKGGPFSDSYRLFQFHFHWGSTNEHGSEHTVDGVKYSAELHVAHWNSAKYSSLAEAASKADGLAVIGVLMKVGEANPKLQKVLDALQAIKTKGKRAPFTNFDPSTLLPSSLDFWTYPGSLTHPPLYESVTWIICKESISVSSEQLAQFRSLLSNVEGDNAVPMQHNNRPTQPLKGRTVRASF
hCA IV, sequence (P22748 19-312): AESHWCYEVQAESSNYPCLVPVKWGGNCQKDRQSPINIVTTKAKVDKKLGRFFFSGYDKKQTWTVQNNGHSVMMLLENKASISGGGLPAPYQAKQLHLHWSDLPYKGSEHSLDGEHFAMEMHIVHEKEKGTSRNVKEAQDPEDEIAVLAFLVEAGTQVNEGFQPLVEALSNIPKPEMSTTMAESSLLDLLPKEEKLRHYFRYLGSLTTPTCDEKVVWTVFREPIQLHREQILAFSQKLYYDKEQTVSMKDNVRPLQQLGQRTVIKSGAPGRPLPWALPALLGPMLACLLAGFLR

One may read the melting point as the temperature of the solid-liquid transition. One may read the Ki as the equilibrium dissociation constant of an inhibitor or competing ligand from its target. Read a low Ki as a stronger hold on the target. Consider `O=C1CCCc2nc(Nc3ccc(S(=O)(=O)Nc4ccccc4)cc3)ncc21` [Compound 1, 4-((5-Oxo-5,6,7,8-tetrahydroquinazolin-2-yl)amino)-N-phenylbenzenesulfonamide], for which the melting point was in the range of 281 to 283 °C. The compound also returned a Ki in data set [1] of 89.1 µM. Also, the affinity in data set [2], expressed as Ki, was 41.2 µM. The same compound came in with an inhibitory constant (Ki) in data set [3] of more than 100 µM. The compound further returned a Ki in data set [4] of 0.48 µM.
In turn, `COc1ccc(NS(=O)(=O)c2ccc(Nc3ncc4c(n3)CCCC4=O)cc2)cc1` [Compound 2, N-(4-methoxyphenyl)-4-((5-oxo-5,6,7,8-tetrahydroquinazolin-2-yl)amino)benzenesulfonamide] registered a melting point of 233 to 235 °C. Besides, in data set [1], the Ki was more than 100 µM. For the same compound, in data set [2], the affinity, expressed as Ki, was 50.3 µM. In data set [3], this compound came in with an inhibitory constant (Ki) of more than 100 µM. The same compound gave a Ki in data set [4] of 0.46 µM.
`O=C1CCCc2nc(Nc3ccc(S(=O)(=O)Nc4ccc([N+](=O)[O-])cc4)cc3)ncc21` [Compound 3, N-(4-nitrophenyl)-4-((5-oxo-5,6,7,8-tetrahydroquinazolin-2-yl)amino)benzenesulfonamide] came in with a melting point of 264 to 266 °C. Further, the Ki in data set [1] was more than 100 µM. The compound further had a Ki in data set [2] of more than 100 µM. The inhibitory constant (Ki) in data set [3] is more than 100 µM. In data set [4], this compound registered an inhibition constant Ki of 0.42 µM.
`Cc1ccc(NS(=O)(=O)c2ccc(Nc3ncc4c(n3)CCCC4=O)cc2)cc1` [Compound 4, 4-((5-Oxo-5,6,7,8-tetrahydroquinazolin-2-yl)amino)-N-(4-tolyl)benzenesulfonamide] came in with a melting point of 272 to 274 °C. For the same compound, in data set [1], the inhibitory constant (Ki) is more than 100 µM; the “Ki ratio CA I/CA IX” value was > 96 and >100 [CA I/CA IX]^b>96. Further, in data set [2], the inhibitory constant (Ki) is more than 100 µM; the “Ki ratio CA II/CA IX” value is > 96 and >100 [CA II/CA IX]^b>96. Besides, in data set [3], the Ki is more than 100 µM; the “Ki ratio CA IV/CA IX” value is > 96 and >100 [CA IV/CA IX]^b>96. Also, the Ki in data set [4] was 1.04 µM.
For the compound `O=C1CC(c2ccccc2)Cc2nc(Nc3ccc(S(=O)(=O)Nc4ccccc4)cc3)ncc21` (centres unmarked) [Compound 5, 4-((5-Oxo-7-phenyl-5,6,7,8-tetrahydroquinazolin-2-yl)amino)-N-phenylbenzenesulfonamide], the melting point fell in the range of 111 to 113 °C. Further, in data set [1], the inhibition constant (Ki) was more than 100 µM and the “Ki ratio CA I/CA IX” value is more than 222. This compound also showed an inhibition constant Ki in data set [2] of more than 100 µM. Moreover, in data set [3], the inhibitory constant (Ki) was more than 100 µM and the “Ki ratio CA IV/CA IX” value is more than 222. Further, in data set [4], the Ki is 0.45 µM.
Compound `COc1ccc(NS(=O)(=O)c2ccc(Nc3ncc4c(n3)CC(c3ccccc3)CC4=O)cc2)cc1` (centres unmarked) [Compound 6, N-(4-methoxyphenyl)-4-((5-oxo-7-phenyl-5,6,7,8-tetrahydroquinazolin-2-yl)amino)benzenesulfonamide] came in with a melting point of 103 to 105 °C. For the same compound, in data set [1], the Ki came out at 34 µM and the “Ki ratio CA I/CA IX” value is 19.6. In data set [2], the inhibition constant Ki is 11.5 µM and the “Ki ratio CA II/CA IX” value turned out to be 6.6. Further, in data set [3], the Ki was more than 100 µM and the “Ki ratio CA IV/CA IX” value is reported as more than 57.8. For the same compound, affinity in data set [4] was put at a Ki of 1.73 µM.
`O=C1CC(c2ccccc2)Cc2nc(Nc3ccc(S(=O)(=O)Nc4ccc([N+](=O)[O-])cc4)cc3)ncc21` (centres unmarked) [Compound 7, N-(4-nitrophenyl)-4-((5-oxo-7-phenyl-5,6,7,8-tetrahydroquinazolin-2-yl)amino)benzenesulfonamide] displayed a melting point of 118 to 120 °C. Moreover, in data set [1], the inhibitory constant (Ki) was more than 100 µM and the “Ki ratio CA I/CA IX” value is listed as more than 75.2. Besides, in data set [2], the affinity corresponds to a Ki of 67.5 µM and the “Ki ratio CA II/CA IX” value is given as 50.7. In data set [3], the Ki was more than 100 µM and the “Ki ratio CA IV/CA IX” value is more than 75.2. In data set [4], this compound came in with a Ki of 1.33 µM.
Turning to `Cc1ccc(NS(=O)(=O)c2ccc(Nc3ncc4c(n3)CC(c3ccccc3)CC4=O)cc2)cc1` (centres unmarked) [Compound 8, 4-((5-Oxo-7-phenyl-5,6,7,8-tetrahydroquinazolin-2-yl)amino)-N-(4-tolyl)benzenesulfonamide], the melting point fell in the range of 83 to 85 °C. This compound also returned a Ki in data set [1] of 46.1 µM. For the same compound, the Ki in data set [2] turned out to be 13 µM. Besides, in data set [3], the inhibition constant (Ki) is more than 100 µM. In data set [4], this compound displayed a Ki of 15.7 µM.
The like results for `CC1(C)CC(=O)c2cnc(Nc3ccc(S(=O)(=O)Nc4ccccc4)cc3)nc2C1` [Compound 9, 4-((7,7-Dimethyl-5-oxo-5,6,7,8-tetrahydroquinazolin-2-yl)amino)-N-phenylbenzenesulfonamide] were, in that order, 215 to 217 °C, 70.5 µM, 7.4 µM, 91.1 µM and 47.3 µM.
As for `COc1ccc(NS(=O)(=O)c2ccc(Nc3ncc4c(n3)CC(C)(C)CC4=O)cc2)cc1` [Compound 10, 4-((7,7-Dimethyl-5-oxo-5,6,7,8-tetrahydroquinazolin-2-yl)amino)-N-(4-methoxyphenyl)benzenesulfonamide], the melting point was 210 to 212 °C. This compound yielded a Ki in data set [1] of 24.7 µM. Also, the affinity in data set [2], expressed as Ki, was 5.1 µM. The same compound had an inhibitory constant (Ki) in data set [3] of 78.1 µM. For the same compound, in data set [4], the inhibitory constant (Ki) worked out at 48.1 µM.
Turning to `CC1(C)CC(=O)c2cnc(Nc3ccc(S(=O)(=O)Nc4ccc([N+](=O)[O-])cc4)cc3)nc2C1` [Compound 11, 4-((7,7-Dimethyl-5-oxo-5,6,7,8-tetrahydroquinazolin-2-yl)amino)-N-(4-nitrophenyl)benzenesulfonamide], the melting point was 264 to 266 °C. Besides, the Ki in data set [1] turned out to be 62 µM. In data set [2], this compound showed an inhibitory constant (Ki) of 6.9 µM. In data set [3], this compound registered a Ki of more than 100 µM. Also, the Ki in data set [4] is more than 100 µM.
As for `Cc1ccc(NS(=O)(=O)c2ccc(Nc3ncc4c(n3)CC(C)(C)CC4=O)cc2)cc1` [Compound 12, 4-((7,7-Dimethyl-5-oxo-5,6,7,8-tetrahydroquinazolin-2-yl)amino)-N-(p-tolyl)benzenesulfonamide], the melting point was 246 to 248 °C. The compound also yielded an inhibition constant (Ki) in data set [1] of 84.9 µM. This compound also showed a Ki in data set [2] of 22.4 µM. Further, the inhibition constant Ki in data set [3] worked out at 62.1 µM. In data set [4], this compound displayed a Ki of 19.3 µM.
The compound `NS(=O)(=O)c1ccc(Nc2ncc3c(n2)CCCC3=O)cc1` [Compound 16a, 4-((5-oxo-5,6,7,8-tetrahydroquinazolin-2-yl)amino)benzenesulfonamide] returned a melting point of 294 to 296 °C.
Still for that read-out and setting: to `NS(=O)(=O)c1ccc(Nc2ncc3c(n2)CC(c2ccccc2)CC3=O)cc1` (centres unmarked) [Compound 16b, 4-((5-oxo-7-phenyl-5,6,7,8-tetrahydroquinazolin-2-yl)amino)benzenesulfonamide] belongs 214 to 215 °C.
With `CC1(C)CC(=O)c2cnc(Nc3ccc(S(N)(=O)=O)cc3)nc2C1` [Compound 16c, 4-((5-oxo-7,7-dimethyl-5,6,7,8-tetrahydroquinazolin-2-yl)amino)benzenesulfonamide], the melting point lay in the range of 258 to 260 °C.
